From US7943606B2, “Compositions and methods to control abnormal cell growth” (CanCure Laboratories, LLC, priority 2005, dated 2011) come the findings set out here.

Molecules are shown by their SMILES.

One data set deals with MRC-5 cells. As to the kind of experiment: Viability of MRC-5 normal lung fibroblasts (MTT assay). Format: cell-based. Particulars: Homo sapiens, MRC5; 10,000 cells per well (25-35% confluent), 72 hours, MTT; read-out: IC50 values, Antiproliferative, MRC-5. The method, then:
(§1) To quantify cell death, around the time when significant and characteristic morphological changes took place, cells were pulse-labeled for 10 minutes with [^3H]thymidine to measure DNA activity as described elsewhere [Tomono, M. and Kiss, Z. (1995), “Ethanol enhances the stimulatory effects of insulin and insulin-like growth factor-I on DNA synthesis in NIH 3T3 fibroblasts,” Biochem. Biophys. Res. Commun. 208, 63-67]. Also, cells were collected as suspensions using trypsin, an established method in cell biology, followed by re-plating of cells in fresh tissue culture medium. If no viable cells were obtained after one week in culture, it meant that the cells at the time of re-plating were dead. Survival values obtained with untreated cells were considered 100%. For the determination of relative number of viable cells after treatments, in most cases the MTT assay was used. This calorimetric assay is based on the ability of living cells, but not dead cells, to reduce 3-(4,5-dimethyl thiazol-2-yl)-2,5-diphenyltetrazolium bromide [Carmichael, J, De Graff, W. G., Gazdar, A. F., Minna, J. D. and Mitchell, J. B. (1987), “Evaluation of tetrazolium-based semi-automated calorimetric assay: Assessment of chemosensitivity testing,” Cancer Res. 47, 936-942]. For this assay, cells were plated in 96-well plates, and the MTT assay was performed both in untreated and treated cell cultures. The MTT assay also was performed at the start of treatments to allow assessment of proliferation rates in the control and treated cell cultures.
(§2) The MRC-5 cell line is derived from normal lung tissue of a […] fetus. MRC-5 cells were maintained and treated in Eagles Medium with Hanks' BSS containing 10% fetal bovine serum. The T47D cells were maintained and treated in RPMI 1640 medium supplemented with 0.2 IU bovine insulin and 10% fetal bovine serum. The CaOV-3 human ovarian cancer cells were cultured in Dulbecco's modified Eagle's medium containing 10% fetal bovine serum. The cells were seeded in 96-well plates either at 10,000 cells per well or 30,000 cells per well to examine the antiproliferative and cytotoxic effects of various CC compounds, respectively. The cells were incubated for 24 hours, then the medium was changed followed by the treatments of cultures 2 hours after the medium change. At this point, cell cultures seeded at 10,000 cells per well and 30,000 cells per well were 25-35% and 80-90% confluent, respectively. Incubations were continued for 72 hours followed by the MTT assay. The data, shown in TABLE 2, indicate the inhibitory concentrations of CC compounds (IC50) required for 50% decrease in the number of viable cells. These numbers are calculated from the mean of 4 incubations in one experiment (the experiment was repeated once with similar results).
For orientation: Tetrazolium dyes change colour on reduction, which living cells bring about.

Assay in data set [1]: as above
The data set is classed as cell-based. Particulars: human, MRC-5 normal lung fibroblasts; 30,000 cells per well (80-90% confluent), 72 hours, MTT; read-out: IC50 values, Cytotoxic, MRC-5. The method, then: as §1, §2

The subject of the next data set is MXT tumor. As to the kind of experiment: MXT mouse mammary tumor model: tumor volume and survival. Format: in vivo. The note with it: Example 31. The source says:
Tumors were developed in first generation hybrid BDF1 (C57 B1 female×DBA/2 male) adult female mice kept at specified pathogen free (SPF) hygienic level. Suspensions of HL-60 human leukemia cells, or approximately 0.1 cm^3 volume of tumor tissue derived from HT-168 human melanoma, PC-3 human prostate adenocarcinoma, T47D human breast carcinoma, MXT mouse mammary cancer, or mouse B16 melanoma cells were implanted subcutaneously to develop the tumors. After 12-18 days when the tumor-bearing mice were first treated, the size of the tumors was in the 0.2-0.4 cm^3 range. All compounds used were dissolved in physiological (0.9%) saline (NaCl), and the agents, alone or in combinations, were applied subcutaneously or intraperitoneally in 50 μl volume. Tumor volume was determined by calipers in three dimensions; this technique is well known to one having ordinary skill in the art. Tumor volume was calculated according to the generally accepted formula: V=a^2×b×π/6, where “a” and “b” mean the shortest and longest diameter, respectively, of the measured tumor.
The mouse mammary MXT tumor was developed as described above. On day 7 after transplantation of tumor cells, the animals were either remained untreated (group 1) or were treated with 2 mg/kg of CisPt alone (Group 2), or 4 mg/kg of CisPt alone (Group 3), or 4.6 mg/kg of CCDTHT alone (Group 4), or 2 mg/kg of CisPt+4.6 mg/kg of CCDTHT (Group 5), or 4 mg/kg of CisPt+4.6 mg/kg of CCDTHT (Group 6). CCDTHT and CisPt were administered subcutaneously and intraperitoneally, respectively, once daily for 10 days, including a 2-day rest period after 5 days of treatment (i.e., the last treatment was on day 19). Each group consisted of 7 animals, and the mean values±std. dev. for tumor volumes and body weight are shown in TABLE 4 and TABLE 5, respectively. While in this tumor model CCDTHT alone reduced the tumor volume less effectively than in the human tumor models, it clearly added to the tumor volume-reducing effect of CisPt (TABLE 4). A dramatic reduction in tumor volume was particularly evident in Group 6 (4 mg/kg CisPt+4.6 mg/kg CCDTHT).
The mouse mammary MXT tumor model was developed and treated as described above. On day 7 the animals were either remained untreated (Group 1) or were treated with 3 mg/kg of CisPt (Group 2) or 3 mg/kg of CisPt+15 mg/kg of highly purified PALP (Group 3). CisPt and PALP were administered intraperitoneally and subcutaneously, respectively, seven times on every second day (i.e., treatments were terminated on day 21). Each group included 7 animals; the mean values±std. dev. for tumor volumes and body weight are shown in TABLE 6 and TABLE 7, respectively.
The mouse mammary MXT tumor model was developed and treated as described above. On day 7 the animals either remained untreated (Group 1) or were treated with 3 mg/kg CisPt (Group 2), 3 mg/kg CisPt+4.6 mg/kg of CCDTHT (Group 3), or 3 mg/kg CisPt+4.6 mg/kg of CCDTHT+15 mg/kg highly purified PALP (Group 4). CisPt was administered intraperitoneally 9-times once every second day; CCDTHT was administered for 15 days once daily; and PALP was administered 3 times every 3rd day. In each group 7 mice were included. The mean values±std. dev. for tumor volumes and body weights are shown in TABLE 9 and TABLE 10, respectively.

Where [2] appears, read: CisPt 2 mg/kg i.p. and/or CCDTHT 4.6 mg/kg s.c., once daily.

On to `CC[N+](C)(CC)CCOCc1ccc2sc3ccccc3c(=O)c2c1.[I-]` [CCDTHT, N,N-diethyl-N-methyl-2-[(9-oxo-9H-thioxanthen-2-yl)methoxy]-ethanaminium iodide], for which the IC50 (commonly the concentration at which inhibition is half-maximal) in the data set on MRC-5 cells amounted to 90 µM. Moreover, the half-inhibitory concentration (IC50) at 72 h in data set [1] was 119 µM. Moreover, in the data set with MXT tumor (CisPt 2 mg/kg and/or CCDTHT 4.6 mg/kg (groups 2, 4, 5)), the survival came to 30.6 ± 3.2 days. In the data set on MXT tumor (setting [2]), the “Tumor volume, Day 14” value was 4.14 ± 0.71 cm^3; the “Tumor volume, Day 18” value turned out to be 6.62 ± 0.43 cm^3; the “Tumor volume, Day 21” value was 9.35 ± 0.69 cm^3. In the data set with MXT tumor (CisPt 2 mg/kg i.p. and/or CCDTHT 4.6 mg/kg s.c., start of treatment), the “Tumor volume, Day 7” value worked out at 0.43 ± 0.07 cm^3.
